From ChEMBL document CHEMBL5465560, “Selectivity Literature for EUbOPEN Chemogenomic Library” (2024)
Blank lines part the entries; values can stand above or below the compound they belong to.

Experiments:
[1] = target: Serine/threonine-protein kinase SIK3 (Homo sapiens) (UniProt Q9Y2K2); details: at 10 µM
[2] = target: T1, Alpha-2C adrenergic receptor (Homo sapiens) (UniProt P18825); experiment: Selectivity interaction (Panel of kinases, GPCRs, ion channels and transporters (enzymatic assay)) EUB0000266bCl ADRA2C
T1 sequence (whole entry): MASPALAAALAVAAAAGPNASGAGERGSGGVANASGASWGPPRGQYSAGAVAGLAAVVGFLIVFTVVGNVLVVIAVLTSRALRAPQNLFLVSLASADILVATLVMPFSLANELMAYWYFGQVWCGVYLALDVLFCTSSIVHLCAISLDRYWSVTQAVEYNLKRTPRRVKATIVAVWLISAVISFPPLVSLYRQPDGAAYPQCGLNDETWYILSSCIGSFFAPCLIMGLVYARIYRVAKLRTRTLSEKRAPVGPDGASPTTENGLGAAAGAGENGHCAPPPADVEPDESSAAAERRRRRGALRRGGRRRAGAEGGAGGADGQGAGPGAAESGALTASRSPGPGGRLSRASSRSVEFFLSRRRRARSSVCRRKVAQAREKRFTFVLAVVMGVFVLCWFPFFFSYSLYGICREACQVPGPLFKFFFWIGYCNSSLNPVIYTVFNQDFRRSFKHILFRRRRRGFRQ

[3] = target: T2, Serine/threonine-protein kinase TBK1 (Homo sapiens) (UniProt Q9UHD2); experiment: Selectivity interaction (ActivX KiNativ screen (kinase selectivity in THP-1 cell lysates)) EUB0000639a TBK1; type: subcellular; details: lysate
T2 sequence (whole entry): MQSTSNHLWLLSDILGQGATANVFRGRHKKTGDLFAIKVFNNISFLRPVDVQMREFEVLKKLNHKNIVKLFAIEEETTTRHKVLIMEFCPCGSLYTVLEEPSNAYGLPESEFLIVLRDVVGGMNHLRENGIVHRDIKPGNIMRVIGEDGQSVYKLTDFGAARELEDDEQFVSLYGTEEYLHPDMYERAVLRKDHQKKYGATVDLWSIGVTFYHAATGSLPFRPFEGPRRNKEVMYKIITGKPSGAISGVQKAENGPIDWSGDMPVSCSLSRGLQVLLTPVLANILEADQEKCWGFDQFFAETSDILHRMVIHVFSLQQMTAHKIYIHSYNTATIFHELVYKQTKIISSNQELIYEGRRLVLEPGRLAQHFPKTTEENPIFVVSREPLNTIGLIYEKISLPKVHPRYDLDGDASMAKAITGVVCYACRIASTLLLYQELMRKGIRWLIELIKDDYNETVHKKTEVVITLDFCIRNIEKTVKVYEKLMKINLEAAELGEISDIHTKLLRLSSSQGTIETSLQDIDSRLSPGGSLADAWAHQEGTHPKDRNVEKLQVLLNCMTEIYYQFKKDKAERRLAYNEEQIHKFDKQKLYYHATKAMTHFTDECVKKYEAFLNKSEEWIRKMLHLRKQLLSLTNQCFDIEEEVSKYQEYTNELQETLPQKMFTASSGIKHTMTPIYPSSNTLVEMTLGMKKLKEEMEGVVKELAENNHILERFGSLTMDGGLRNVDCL

[4] = target: Tyrosine-protein kinase JAK1 (Homo sapiens, UniProt P23458); experiment: Selectivity interaction (ActivX KiNativ screen (kinase selectivity in THP-1 cell lysates)) EUB0000639a JAK1; type: subcellular; details: lysate, at 5 µM
[5] = target: Dual specificity protein kinase CLK2 (Homo sapiens, UniProt P49760); experiment: Selectivity interaction (KinomeScan (DiscoverX)) EUB0001550a CLK2; details: at 1 µM
[6] = target: Platelet-derived growth factor receptor alpha (Homo sapiens, UniProt P16234); details: at 10 µM
[7] = target: Cyclin-dependent kinase 5 (Homo sapiens, UniProt Q00535); experiment: Selectivity interaction (KinomeScan (DiscoverX)) EUB0000595a CDK5; details: at 10 µM
[8] = target: [Pyruvate dehydrogenase (acetyl-transferring)] kinase isozyme 1, mitochondrial (Homo sapiens, UniProt Q15118); experiment: Selectivity interaction (ProQinase) EUB0000171b PDK1
[9] = target: SRSF protein kinase 2 (Homo sapiens) (UniProt P78362); experiment: Selectivity interaction (ProQinase) EUB0000171b SRPK2
[10] = target: Serine/threonine-protein kinase pim-2 (Homo sapiens, UniProt Q9P1W9); experiment: Selectivity interaction (ProQinase) EUB0000171b PIM2
[11] = target: Casein kinase I isoform delta (Homo sapiens, UniProt P48730); experiment: Selectivity interaction (KinomeScan (DiscoverX)) EUB0000092b CSNK1D; details: at 10 µM
[12] = target: Histone-lysine N-methyltransferase ASH1L (Homo sapiens) (UniProt Q9NR48); experiment: Selectivity interaction (Human bromodomain panel (DSF assay)) EUB0000233b ASH1L
[13] = target: Rho-associated protein kinase 1 (Homo sapiens) (UniProt Q13464); experiment: Selectivity interaction (ActivX KiNativ screen (ex vivo kinase selectivity in human PBMCs)) EUB0001619a ROCK1; type: cell-based; details: PBMC, at 1 µM
[14] = target: Ephrin type-A receptor 7 (Homo sapiens) (UniProt Q15375); experiment: Selectivity interaction (KinomeScan (DiscoverX)) EUB0000607a EPHA7; details: at 10 µM
[15] = target: Mast/stem cell growth factor receptor Kit (Homo sapiens, UniProt P10721); experiment: Selectivity interaction (KinomeScan (DiscoverX)) EUB0000607a KIT; details: at 10 µM
[16] = target: T3, STE20-related kinase adapter protein alpha (Homo sapiens) (UniProt Q7RTN6); experiment: Selectivity interaction (Kinase panel (KiNativ target engagement assay in Jurkat cells)) EUB0001635a STRADA; type: cell-based; details: Selectivity number of off-targets 0.0, Selectivity number of targets 233.0, Source Knowledge https://www.sciencedirect.com/science/article/pii/S2451945619300674?via%3Dihub, at 1 µM
T3 sequence (whole entry): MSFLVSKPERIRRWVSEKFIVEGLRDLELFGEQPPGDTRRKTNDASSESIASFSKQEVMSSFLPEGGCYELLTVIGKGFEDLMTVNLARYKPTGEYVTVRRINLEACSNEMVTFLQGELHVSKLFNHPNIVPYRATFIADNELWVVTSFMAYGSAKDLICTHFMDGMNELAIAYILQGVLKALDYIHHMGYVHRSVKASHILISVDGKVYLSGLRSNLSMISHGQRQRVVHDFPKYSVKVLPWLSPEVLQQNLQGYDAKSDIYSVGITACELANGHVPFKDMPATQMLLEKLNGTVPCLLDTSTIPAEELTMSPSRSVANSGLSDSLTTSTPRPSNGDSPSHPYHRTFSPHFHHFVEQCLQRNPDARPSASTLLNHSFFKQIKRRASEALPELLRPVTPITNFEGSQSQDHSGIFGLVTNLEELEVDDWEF

Sequence of Serine/threonine-protein kinase pim-2 (Q9P1W9 whole entry, looked up, canonical isoform): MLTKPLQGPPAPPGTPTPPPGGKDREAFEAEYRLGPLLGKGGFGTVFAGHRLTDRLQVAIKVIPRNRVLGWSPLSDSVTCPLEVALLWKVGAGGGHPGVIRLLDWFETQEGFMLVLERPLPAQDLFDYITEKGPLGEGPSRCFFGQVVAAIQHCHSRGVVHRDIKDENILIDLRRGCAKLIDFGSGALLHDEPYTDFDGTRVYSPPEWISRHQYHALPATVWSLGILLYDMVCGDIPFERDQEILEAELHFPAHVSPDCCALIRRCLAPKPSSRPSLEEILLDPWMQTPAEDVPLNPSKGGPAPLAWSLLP
Sequence of SRSF protein kinase 2 (Homo sapiens) (P78362 whole entry, looked up): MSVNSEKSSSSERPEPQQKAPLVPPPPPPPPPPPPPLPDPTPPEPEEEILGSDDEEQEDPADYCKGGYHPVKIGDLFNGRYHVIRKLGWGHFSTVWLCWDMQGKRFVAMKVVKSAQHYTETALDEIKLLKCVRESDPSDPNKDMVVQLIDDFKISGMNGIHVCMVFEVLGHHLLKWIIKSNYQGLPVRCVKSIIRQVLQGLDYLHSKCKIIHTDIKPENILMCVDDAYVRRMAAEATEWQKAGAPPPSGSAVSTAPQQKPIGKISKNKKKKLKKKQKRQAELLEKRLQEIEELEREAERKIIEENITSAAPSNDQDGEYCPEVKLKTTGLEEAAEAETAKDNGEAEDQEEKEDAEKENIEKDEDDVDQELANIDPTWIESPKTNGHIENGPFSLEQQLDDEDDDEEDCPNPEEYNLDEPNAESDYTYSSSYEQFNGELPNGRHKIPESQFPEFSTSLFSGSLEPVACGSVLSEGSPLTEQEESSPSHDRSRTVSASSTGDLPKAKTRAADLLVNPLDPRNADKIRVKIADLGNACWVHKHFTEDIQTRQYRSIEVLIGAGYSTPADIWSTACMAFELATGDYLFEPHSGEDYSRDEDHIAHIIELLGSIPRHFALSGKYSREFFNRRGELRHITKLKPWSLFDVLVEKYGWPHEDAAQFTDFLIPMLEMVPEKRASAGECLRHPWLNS
Sequence of Ephrin type-A receptor 7 (Homo sapiens) (Q15375 28-998 limits assumed): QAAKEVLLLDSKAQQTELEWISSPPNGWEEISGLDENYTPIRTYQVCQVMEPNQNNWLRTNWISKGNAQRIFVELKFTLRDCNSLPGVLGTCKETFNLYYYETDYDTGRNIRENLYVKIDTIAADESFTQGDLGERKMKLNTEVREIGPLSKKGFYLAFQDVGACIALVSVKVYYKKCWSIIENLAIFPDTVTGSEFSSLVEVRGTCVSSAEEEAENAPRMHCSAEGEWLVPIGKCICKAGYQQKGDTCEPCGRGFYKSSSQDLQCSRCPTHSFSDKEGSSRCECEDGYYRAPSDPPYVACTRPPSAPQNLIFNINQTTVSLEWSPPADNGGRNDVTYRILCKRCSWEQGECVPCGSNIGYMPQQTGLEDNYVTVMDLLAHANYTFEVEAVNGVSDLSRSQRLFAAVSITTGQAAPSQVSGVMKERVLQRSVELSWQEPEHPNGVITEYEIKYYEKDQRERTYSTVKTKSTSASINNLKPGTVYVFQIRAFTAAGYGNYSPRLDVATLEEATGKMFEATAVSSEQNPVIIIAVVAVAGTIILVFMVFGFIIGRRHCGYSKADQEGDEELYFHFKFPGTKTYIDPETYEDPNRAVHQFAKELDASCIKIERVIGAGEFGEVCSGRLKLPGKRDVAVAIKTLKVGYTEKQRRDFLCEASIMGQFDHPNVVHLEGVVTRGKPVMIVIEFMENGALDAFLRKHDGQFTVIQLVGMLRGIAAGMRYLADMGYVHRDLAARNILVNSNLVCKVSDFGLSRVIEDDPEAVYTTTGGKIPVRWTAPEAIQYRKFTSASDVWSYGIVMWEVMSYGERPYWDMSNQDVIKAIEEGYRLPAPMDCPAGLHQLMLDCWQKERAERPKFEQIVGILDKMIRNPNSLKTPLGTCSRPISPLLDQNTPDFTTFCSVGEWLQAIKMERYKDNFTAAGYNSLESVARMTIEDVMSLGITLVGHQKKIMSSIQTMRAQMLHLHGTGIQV
Sequence of Casein kinase I isoform delta (P48730 whole entry, looked up, canonical isoform): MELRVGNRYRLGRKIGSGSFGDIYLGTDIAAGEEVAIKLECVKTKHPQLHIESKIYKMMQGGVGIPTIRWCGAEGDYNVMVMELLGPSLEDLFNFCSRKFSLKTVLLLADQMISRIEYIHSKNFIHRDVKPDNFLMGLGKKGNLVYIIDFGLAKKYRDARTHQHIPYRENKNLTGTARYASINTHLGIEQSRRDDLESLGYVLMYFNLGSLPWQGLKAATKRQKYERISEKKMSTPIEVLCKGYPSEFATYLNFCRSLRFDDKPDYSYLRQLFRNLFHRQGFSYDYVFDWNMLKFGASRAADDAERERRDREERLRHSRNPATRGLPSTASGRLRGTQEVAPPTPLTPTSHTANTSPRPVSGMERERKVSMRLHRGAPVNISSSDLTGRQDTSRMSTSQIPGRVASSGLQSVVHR
Sequence of Platelet-derived growth factor receptor alpha (P16234 whole entry): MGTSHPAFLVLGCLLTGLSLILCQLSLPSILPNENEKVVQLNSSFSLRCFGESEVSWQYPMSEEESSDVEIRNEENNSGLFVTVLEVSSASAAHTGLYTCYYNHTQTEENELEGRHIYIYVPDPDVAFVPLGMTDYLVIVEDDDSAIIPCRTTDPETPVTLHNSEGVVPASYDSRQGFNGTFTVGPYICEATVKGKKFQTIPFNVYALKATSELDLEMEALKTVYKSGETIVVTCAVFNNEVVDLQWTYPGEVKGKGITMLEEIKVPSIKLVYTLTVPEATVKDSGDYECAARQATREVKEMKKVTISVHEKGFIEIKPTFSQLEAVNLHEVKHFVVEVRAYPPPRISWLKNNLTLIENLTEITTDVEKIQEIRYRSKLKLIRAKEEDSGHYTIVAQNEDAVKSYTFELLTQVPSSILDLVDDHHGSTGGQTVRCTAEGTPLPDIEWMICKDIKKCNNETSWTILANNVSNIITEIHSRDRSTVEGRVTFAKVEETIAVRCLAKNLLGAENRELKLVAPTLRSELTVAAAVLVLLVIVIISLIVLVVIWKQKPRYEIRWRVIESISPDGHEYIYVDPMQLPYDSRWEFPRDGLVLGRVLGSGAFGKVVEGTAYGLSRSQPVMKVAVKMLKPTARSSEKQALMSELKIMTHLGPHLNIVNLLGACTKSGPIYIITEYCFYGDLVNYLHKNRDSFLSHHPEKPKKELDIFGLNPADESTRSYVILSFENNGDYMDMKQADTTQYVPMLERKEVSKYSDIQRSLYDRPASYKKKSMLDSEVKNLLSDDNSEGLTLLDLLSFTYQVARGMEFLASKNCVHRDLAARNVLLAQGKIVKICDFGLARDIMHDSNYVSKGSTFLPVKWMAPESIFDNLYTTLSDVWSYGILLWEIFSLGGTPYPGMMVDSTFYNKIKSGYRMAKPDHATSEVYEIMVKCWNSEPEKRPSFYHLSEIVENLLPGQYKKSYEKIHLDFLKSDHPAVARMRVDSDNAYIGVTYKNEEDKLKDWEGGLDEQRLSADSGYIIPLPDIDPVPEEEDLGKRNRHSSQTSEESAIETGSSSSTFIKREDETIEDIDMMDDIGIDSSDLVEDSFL
Sequence of Rho-associated protein kinase 1 (Homo sapiens) (Q13464 2-1354 limits assumed): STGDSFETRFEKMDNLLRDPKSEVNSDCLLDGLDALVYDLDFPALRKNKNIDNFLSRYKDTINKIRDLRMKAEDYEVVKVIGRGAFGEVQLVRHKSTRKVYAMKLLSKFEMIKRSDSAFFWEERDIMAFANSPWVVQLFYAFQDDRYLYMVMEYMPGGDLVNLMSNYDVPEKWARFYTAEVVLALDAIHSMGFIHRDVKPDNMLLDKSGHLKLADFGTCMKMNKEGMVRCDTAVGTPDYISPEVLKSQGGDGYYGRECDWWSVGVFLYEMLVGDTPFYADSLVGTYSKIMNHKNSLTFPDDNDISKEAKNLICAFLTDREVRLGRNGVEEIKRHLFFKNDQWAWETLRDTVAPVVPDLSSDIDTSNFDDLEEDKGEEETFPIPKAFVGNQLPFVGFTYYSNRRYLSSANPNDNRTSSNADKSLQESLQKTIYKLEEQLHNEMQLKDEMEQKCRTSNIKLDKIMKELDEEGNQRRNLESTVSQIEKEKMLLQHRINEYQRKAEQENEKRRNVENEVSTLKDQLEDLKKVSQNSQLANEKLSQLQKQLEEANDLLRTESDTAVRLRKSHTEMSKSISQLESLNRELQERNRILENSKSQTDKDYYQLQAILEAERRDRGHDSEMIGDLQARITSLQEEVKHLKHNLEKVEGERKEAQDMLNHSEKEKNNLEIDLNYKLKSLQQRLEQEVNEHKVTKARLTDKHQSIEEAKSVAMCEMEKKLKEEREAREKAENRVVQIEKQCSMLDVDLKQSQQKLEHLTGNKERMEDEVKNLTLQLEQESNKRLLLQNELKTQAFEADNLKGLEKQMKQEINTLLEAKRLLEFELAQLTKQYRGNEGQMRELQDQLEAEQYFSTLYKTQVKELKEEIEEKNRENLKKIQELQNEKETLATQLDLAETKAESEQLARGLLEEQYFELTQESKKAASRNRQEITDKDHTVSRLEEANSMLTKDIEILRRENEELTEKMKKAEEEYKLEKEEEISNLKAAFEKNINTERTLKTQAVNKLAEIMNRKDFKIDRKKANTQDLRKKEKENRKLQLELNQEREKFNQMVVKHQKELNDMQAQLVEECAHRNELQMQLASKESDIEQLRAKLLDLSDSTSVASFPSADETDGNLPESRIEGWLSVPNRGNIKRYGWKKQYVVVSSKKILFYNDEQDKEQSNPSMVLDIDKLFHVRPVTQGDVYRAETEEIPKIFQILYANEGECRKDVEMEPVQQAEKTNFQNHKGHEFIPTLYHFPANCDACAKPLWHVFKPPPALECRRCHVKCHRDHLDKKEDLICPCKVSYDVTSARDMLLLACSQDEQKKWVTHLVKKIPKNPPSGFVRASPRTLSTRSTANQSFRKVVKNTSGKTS

pXC50 [2]: < 4.5 M
SMILES: CCn1c(-c2nc3cc(C(=O)N4CCCC(N)C4)ccc3n2C)cc2ccccc21 (stereo not drawn)

% of inhibition ([3]; at 0.01 µM): -51.9%
% of inhibition ([3]; at 0.04 µM): -22.2%
% of inhibition ([3]; at 0.2 µM): -29.9%
% of inhibition ([3]; at 1 µM): 10%
% of inhibition ([3]; at 5 µM): 26.2%
% of inhibition [4]: -35.3%
SMILES: CC[C@@H]1[C@H](F)C(=O)N[C@@H]1COc1nccc2cc(C(N)=O)c(OC)cc12 [ZIMLOVISERTIB]

% of control [5]: 20%
SMILES: CN(C)CC#Cc1ccc2[nH]c3c(c2c1)-c1nc(N)ncc1CCC3

% of control [6]: 100%
SMILES: CCN(CC)CCCCNc1ncc2cc(-c3cc(OC)cc(OC)c3)c(NC(=O)NC(C)(C)C)nc2n1

% of control ([8]; at 1 µM): 74%
% of control ([8]; at 5 µM): 39%
% of control ([9]; at 1 µM): 82%
% of control ([9]; at 5 µM): 75%
% of control ([10]; at 1 µM): 101%
% of control ([10]; at 5 µM): 69%
SMILES: C=CC(=O)Nc1cccc(C(=O)Nc2ccc(Nc3cc(-c4[nH]c(SC)nc4C)ccn3)cc2)c1

dTM [12]: < 2 K
SMILES: CN(C)CCCOc1ccc(-c2cc(NCCCn3cccn3)nc(S(C)(=O)=O)n2)cc1

The next lines start with the compound.

SMILES: Cc1cc([C@@H](C)Nc2ccccc2C(=O)O)c2nc(N3CCOCC3)cc(=O)n2c1 [AZD-6482]
% of control [1]: 95%

SMILES: COCC(=O)NC/C=C/c1ccc2ncnc(Nc3ccc(Oc4ccc(C)nc4)c(C)c3)c2c1 [CP-724714]
% of control [7]: 100%

SMILES: CCC(=O)N1CCN(c2ccc(-n3c(=O)ccc4cnc5ccc(-c6cnc7ccccc7c6)cc5c43)cc2C(F)(F)F)CC1
% of control [11]: 4.3%

SMILES: N#Cc1cccc(-c2c[nH]c3ncnc(N4CCOCC4)c23)c1
% of inhibition [13]: -3%

SMILES: CNC(=O)Nc1ccc(-c2nc(N3CC4CCC(C3)O4)c3cnn(C4CCC5(CC4)OCCO5)c3n2)cc1
% of control [14]: 87%
% of control [15]: 93%

SMILES: C=CC(=O)Nc1ccc(C(=O)Nc2[nH]nc3c2CN(C(=O)N[C@H](CN(C)C)c2ccccc2)C3(C)C)cc1
% of engagement [16]: -20.7%
